Measurements published in patent US11111242B2, “Pyrrolo[2,3-d]pyrimidinyl, pyrrolo[2,3-b]pyrazinyl and pyrrolo[2,3-d]pyridinyl acrylamides” (Pfizer Inc., priority 2013, dated 2021).
Read-outs that look alike come from different tables or passages of the source.

System: IL-15 induced P-STAT5 in human PBMC (total lymphocytes)
Assay: PBMC IL-15 Induced P-STAT5
Assay type: cell-based
Conditions: IL-15 stimulated, read-out: PBMC IL15-pSTAT5 IC50
Description: PBMC IL-15 Induced P-STAT5
Frozen human PBMC (200-250 million cells/vial) was thawed at 37° C. The cells were transferred to 10 mL warm medium in a 50-mL conical tube, and centrifuged at 1,200 RPM at room temperature for 5 min. The supernatant was aspirated. […] After adding 47 ml D-PBS (37° C.) to PBMC/FBS suspension, centrifuging at 1,200 RPM at room temperature for 5 min, and aspirating the supernatant, the cells were resuspended in 20 mL warm RPMI medium. Ninety μL of cell suspension were pipetted per well in a 96-well, deep-well, V-bottom plate, and the plate was incubated at 37° C. for 30 min. […] After adding 0.8 mL staining buffer per well, the plates were centrifuged at 1,200 RPM (Beckman GS-6R or Sorvall Legend) at room temperature for 5 min, and again the supernatant was aspirated using a 8-channel or 12-channel manifold. The plate was vortexed, and 0.35 mL 90% methanol/10% H2O (−20° C.) was added per well, and the plate incubated on ice for 20 min. After again adding 0.8 mL staining buffer per well, the plates were centrifuged at 1,200 RPM (Beckman GS-6R or Sorvall Legend) at room temperature for 5 min, and again the supernatant was aspirated using a 8-channel or 12-channel manifold, and then 0.8 mL Staining buffer was added per well. After once again adding 0.8 mL staining buffer per well, the plates were centrifuged at 1,200 RPM (Beckman GS-6R or Sorvall Legend) at room temperature for 5 min, and again the supernatant was aspirated using a 8-channel or 12-channel manifold. […] Samples of 250 μL/well were transferred to a 96-well U-bottom plate, and the FACS analysis was performed gating on total lymphocytes. Samples were analyzed using a BD Calibur™ or BD FACSCanto™ flow cytometer equipped with the BD High Throughput Sampler.

Structure (SMILES) | IC50 [µM] | IC50 (Homo sapiens, PBMC) [µM]
C=CC(=O)N1CCC(Oc2cnc3[nH]cc(-c4cnc(OC)nc4)c3n2)CC1 [Example 219, 1-(4-{[7-(2-methoxypyrimidin-5-yl)-5H-pyrrolo[2,3-b]pyrazin-2-yl]oxy}piperidin-1-yl)prop-2-en-1-one] | 0.987 | –
C=CC(=O)N1CCC(Oc2cnc3[nH]cc(-c4ccnc(C)c4)c3n2)CC1 [Example 220, 1-(4-{[7-(2-methylpyridin-4-yl)-5H-pyrrolo[2,3-b]pyrazin-2-yl]oxy}piperidin-1-yl)prop-2-en-1-one] | – | 0.465
C=CC(=O)N1CCC(Oc2cnc3[nH]cc(-c4ccnc(F)c4)c3n2)CC1 [Example 222, 1-(4-{[7-(2-fluoropyridin-4-yl)-5H-pyrrolo[2,3-b]pyrazin-2-yl]oxy}piperidin-1-yl)prop-2-en-1-one] | 0.757 | –
C=CC(=O)N1CCC(Oc2cnc3[nH]cc(-c4cncc(C#N)c4)c3n2)CC1 [Example 225, 5-{2-[(1-acryloylpiperidin-4-yl)oxy]-5H-pyrrolo[2,3-b]pyrazin-7-yl}pyridine-3-carbonitrile] | 2.91 | –
C=CC(=O)N1CCC(Oc2cnc3[nH]cc(-c4ccc(F)nc4)c3n2)CC1 [Example 226, 1-(4-{[7-(6-fluoropyridin-3-yl)-5H-pyrrolo[2,3-b]pyrazin-2-yl]oxy}piperidin-1-yl)prop-2-en-1-one] | 0.699 | –
C=CC(=O)N1CCC(Oc2cnc3[nH]cc(-c4cccc(C(=O)NC)c4)c3n2)CC1 [Example 227, 3-{2-[(1-acryloylpiperidin-4-yl)oxy]-5H-pyrrolo[2,3-b]pyrazin-7-yl}-N-methylbenzamide] | 0.643 | –
C=CC(=O)N1CCC(Nc2cnc3[nH]cc(C(=O)NCC4(O)CCC4)c3n2)CC1 [Example 231, 2-[(1-acryloylpiperidin-4-yl)amino]-N-[(1-hydroxycyclobutyl)methyl]-5H-pyrrolo[2,3-b]pyrazine-7-carboxamide] | 3.62 | –
C=CC(=O)N1CCC(Nc2cnc3[nH]cc(C(=O)NCC4(O)CCCC4)c3n2)CC1 [Example 232, 2-[(1-acryloylpiperidin-4-yl)amino]-N-[(1-hydroxycyclopentyl)methyl]-5H-pyrrolo[2,3-b]pyrazine-7-carboxamide] | 1.64 | –
C=CC(=O)N1CCC(Nc2cnc3[nH]cc(C(=O)NC4CCCC4(F)F)c3n2)CC1 (stereo not drawn) [Example 234, 2-[(1-acryloylpiperidin-4-yl)amino]-N-(2,2-difluorocyclopentyl)-5H-pyrrolo[2,3-b]pyrazine-7-carboxamide] | – | 0.0652
C=CC(=O)N1CCC(Nc2cnc3[nH]cc(C(=O)NCC4(O)CCC(C)C4)c3n2)CC1 (stereo not drawn) [Example 235, 2-[(1-acryloylpiperidin-4-yl)amino]-N-[(1-hydroxy-3-methylcyclopentyl)methyl]-5H-pyrrolo[2,3-b]pyrazine-7-carboxamide] | 1.7 | –
C=CC(=O)N1CCC(Nc2cnc3[nH]cc(C(=O)N[C@@H]4CCC[C@H]4F)c3n2)CC1 [Example 237, 2-[(1-acryloylpiperidin-4-yl)amino]-N-[(1R,2R)-2-fluorocyclopentyl]-5H-pyrrolo[2,3-b]pyrazine-7-carboxamide] | 0.0801 | –
C=CC(=O)N1CCC(Nc2cnc3[nH]cc(C(=O)NCC4(O)CC[C@@H](C)C4)c3n2)CC1 (stereo partly drawn) [Example 239, 2-[(1-acryloylpiperidin-4-yl)amino]-N-{[(3R)-1-hydroxy-3-methylcyclopentyl]methyl}-5H-pyrrolo[2,3-b]pyrazine-7-carboxamide] | 1.9 | –
C=CC(=O)N1CCC(Nc2cnc3[nH]cc(C(=O)NCCCC#N)c3n2)CC1 [Example 242, 2-[(1-acryloylpiperidin-4-yl)amino]-N-(3-cyanopropyl)-5H-pyrrolo[2,3-b]pyrazine-7-carboxamide] | 1.1 | –
C=CC(=O)N1CCC(Nc2cnc3[nH]cc(C(=O)N[C@H](C(C)C)[C@@H](O)C(F)(F)F)c3n2)CC1 [Example 248, 2-[(1-acryloylpiperidin-4-yl)amino]-N-[(2R,3R)-1,1,1-trifluoro-2-hydroxy-4-methylpentan-3-yl]-5H-pyrrolo[2,3-b]pyrazine-7-carboxamide] | 0.893 | –
C=CC(=O)N1CCC(Nc2cnc3[nH]cc(C(=O)NCC4(O)CCCC(F)(F)C4)c3n2)CC1 (stereo not drawn) [Example 249, 2-[(1-acryloylpiperidin-4-yl)amino]-N-[(3,3-difluoro-1-hydroxycyclohexyl)methyl]-5H-pyrrolo[2,3-b]pyrazine-7-carboxamide] | 2.11 | –
C=CC(=O)N1CCC(Nc2cnc3[nH]cc(C(=O)NCC4(O)CCCC[C@H]4F)c3n2)CC1 (stereo partly drawn) [Example 250, 2-[(1-acryloylpiperidin-4-yl)amino]-N-{[(2R)-2-fluoro-1-hydroxycyclohexyl]methyl}-5H-pyrrolo[2,3-b]pyrazine-7-carboxamide] | 4.12 | –
C=CC(=O)N1CCC(Nc2cnc3[nH]cc(C(=O)NC(CC)C4(O)CCC4)c3n2)CC1 (stereo not drawn) [Example 251b, 2-[(1-acryloylpiperidin-4-yl)amino]-N-[1-(1-hydroxycyclobutyl)propyl]-5H-pyrrolo[2,3-b]pyrazine-7-carboxamide] | 1.51 | –
C=CC(=O)N1CCC(Nc2cnc3[nH]cc(C(=O)N[C@@H](C(C)C)[C@H](O)C(F)(F)F)c3n2)CC1 [Example 252, 2-[(1-acryloylpiperidin-4-yl)amino]-N-[(2S,3S)-1,1,1-trifluoro-2-hydroxy-4-methylpentan-3-yl]-5H-pyrrolo[2,3-b]pyrazine-7-carboxamide] | 0.673 | –
C=CC(=O)N1CCC(Nc2cnc3[nH]cc(C(=O)NCC4(O)CCC(F)(F)CC4)c3n2)CC1 [Example 252b, 2-[(1-acryloylpiperidin-4-yl)amino]-N-[(4,4-difluoro-1-hydroxycyclohexyl)methyl]-5H-pyrrolo[2,3-b]pyrazine-7-carboxamide] | 2.47 | –
C=CC(=O)N1CCC(Nc2cnc3[nH]cc(C(=O)NCC4(O)CCCC[C@@H]4F)c3n2)CC1 (stereo partly drawn) [Example 254, 2-[(1-acryloylpiperidin-4-yl)amino]-N-{[(2S)-2-fluoro-1-hydroxycyclohexyl]methyl}-5H-pyrrolo[2,3-b]pyrazine-7-carboxamide] | 0.837 | –
C=CC(=O)N1CCC(Nc2cnc3[nH]cc(C(=O)NCCCCCCCCC#N)c3n2)CC1 [Example 260, 2-[(1-acryloylpiperidin-4-yl)amino]-N-(8-cyanooctyl)-5H-pyrrolo[2,3-b]pyrazine-7-carboxamide] | 0.575 | –
C=CC(=O)N1CCC(Nc2cnc3[nH]cc(C(=O)N[C@H]4CCC[C@H](CC#N)C4)c3n2)CC1 [Example 262, 2-[(1-acryloylpiperidin-4-yl)amino]-N-[(1S,3S)-3-(cyanomethyl)cyclohexyl]-5H-pyrrolo[2,3-b]pyrazine-7-carboxamide] | 1.33 | –
C=CC(=O)N1CCC(Nc2cnc3[nH]cc(C(=O)N4CCC4)c3n2)CC1 [Example 284, 1-(4-{[7-(azetidin-1-ylcarbonyl)-5H-pyrrolo[2,3-b]pyrazin-2-yl]amino}piperidin-1-yl)prop-2-en-1-one] | 2.79 | –
C=CC(=O)N1CCC(Nc2cnc3[nH]cc(C(=O)N4CCCC4)c3n2)CC1 [Example 287, 1-(4-{[7-(pyrrolidin-1-ylcarbonyl)-5H-pyrrolo[2,3-b]pyrazin-2-yl]amino}piperidin-1-yl)prop-2-en-1-one] | 7.37 | –
C=CC(=O)N1CC[C@@H](Nc2cnc3[nH]cc(C(=O)NC(C)C)c3n2)[C@H](F)C1 [Example 291, 2-{[(3R,4R)-1-acryloyl-3-fluoropiperidin-4-yl]amino}-N-(propan-2-yl)-5H-pyrrolo[2,3-b]pyrazine-7-carboxamide] | 0.168 | –
C=CC(=O)N1CCN(c2cnc3[nH]cc(C(=O)NC(C)C)c3n2)C[C@H]1C(C)C [Example 294, 2-[(3R)-4-acryloyl-3-(propan-2-yl)piperazin-1-yl]-N-(propan-2-yl)-5H-pyrrolo[2,3-b]pyrazine-7-carboxamide] | 1 | –
C=CC(=O)N1CCN(c2cnc3[nH]cc(C(=O)NC(C)C)c3n2)[C@@H](C)C1 [Example 297, 2-[(2S)-4-acryloyl-2-methylpiperazin-1-yl]-N-(propan-2-yl)-5H-pyrrolo[2,3-b]pyrazine-7-carboxamide] | 0.752 | –
C=CC(=O)N1[C@H](C)CN(c2cnc3[nH]cc(C(=O)NC(C)C)c3n2)C[C@@H]1C [Example 306, 2-[(3R,5S)-4-acryloyl-3,5-dimethylpiperazin-1-yl]-N-(propan-2-yl)-5H-pyrrolo[2,3-b]pyrazine-7-carboxamide] | 1.09 | –
C=CC(=O)N1CCN(c2cnc3[nH]cc(C(=O)NC(C)C)c3n2)[C@H](C)C1 [Example 307, 2-[(2R)-4-acryloyl-2-methylpiperazin-1-yl]-N-(propan-2-yl)-5H-pyrrolo[2,3-b]pyrazine-7-carboxamide] | 0.457 | –
C=CC(=O)N1CC2CCC1CN2c1cnc2[nH]cc(C(=O)NC(C)C)c2n1 (stereo not drawn) [Example 308, 2-(5-acryloyl-2,5-diazabicyclo[2.2.2]oct-2-yl)-N-(propan-2-yl)-5H-pyrrolo[2,3-b]pyrazine-7-carboxamide] | 2.24 | –
